Experimental data as given in publication PMC12207908, “The broad‐spectrum antimicrobial peptide BMAP‐27B potentiates carbapenems against NDM‐producing pathogens in food animals” (mLife, 2025).
≈ marks a conversion by molar mass, not a printed value.

Columns and labels:
[1] = system: CRAB1; assay: MIC, broth microdilution; assay type: cell-based; details: Acinetobacter baumannii, MHB, 1 × 10^6 CFU/ml, 16–18 h, 37°C, independent triplicates
Description: (§1) The MIC of BMAP‐27B and other antibiotics was determined using the broth microdilution method, following the guidelines established by the Clinical and Laboratory Standards Institute (CLSI). Briefly, the bacterial cultures were grown to the logarithmic growth phase and subsequently diluted in Mueller–Hinton broth (MHB) to achieve a final concentration of 1 × 10^6 CFU/ml. BMAP‐27B and the other antibiotics were prepared in twofold serial dilutions in MHB and mixed with an equal volume of bacterial suspension in 96‐well polypropylene microtiter plates.

[2] = system: CRAB2; assay: MIC, broth microdilution; assay type: cell-based; details: Acinetobacter baumannii, MHB, 1 × 10^6 CFU/ml, 16–18 h, 37°C, independent triplicates
Description: as §1

[3] = system: CREC1; assay: MIC, broth microdilution; assay type: cell-based; details: Escherichia coli, MHB, 1 × 10^6 CFU/ml, 16–18 h, 37°C, independent triplicates
Description: as §1

[4] = system: CREC2; assay: MIC, broth microdilution; assay type: cell-based; details: Escherichia coli, MHB, 1 × 10^6 CFU/ml, 16–18 h, 37°C, independent triplicates
Description: as §1

[5] = system: CREC3; assay: MIC, broth microdilution; assay type: cell-based; details: Escherichia coli, MHB, 1 × 10^6 CFU/ml, 16–18 h, 37°C, independent triplicates
Description: as §1

[6] = system: CREC4; assay: MIC, broth microdilution; assay type: cell-based; details: Escherichia coli, MHB, 1 × 10^6 CFU/ml, 16–18 h, 37°C, independent triplicates
Description: as §1

[7] = system: CREC6; assay: MIC, broth microdilution; assay type: cell-based; details: Escherichia coli, MHB, 1 × 10^6 CFU/ml, 16–18 h, 37°C, independent triplicates
Description: as §1

[8] = system: En. faecium (Clinical; MDR; pig, faeces), lower row; assay: MIC, broth microdilution; assay type: cell-based; details: Enterococcus faecium, En. faecium clinical MDR isolate, MHB, 16–18 h, 37°C, independent triplicates
Description: as §1

[9] = system: En. faecium (Clinical; MDR; pig, faeces), upper row; assay: MIC, broth microdilution; assay type: cell-based; details: Enterococcus faecium, En. faecium clinical MDR isolate, MHB, 16–18 h, 37°C, independent triplicates
Description: as §1

[10] = system: P. aeruginosa UCBPP-PA14; assay: MIC, broth microdilution; assay type: cell-based; details: Pseudomonas aeruginosa, MHB, 1 × 10^6 CFU/ml, 16–18 h, 37°C, independent triplicates
Description: as §1

[11] = system: PREC1; assay: MIC, broth microdilution; assay type: cell-based; details: Escherichia coli, MHB, 1 × 10^6 CFU/ml, 16–18 h, 37°C, independent triplicates
Description: as §1

[12] = system: PREC2; assay: MIC, broth microdilution; assay type: cell-based; details: Escherichia coli, MHB, 1 × 10^6 CFU/ml, 16–18 h, 37°C, independent triplicates
Description: as §1

[13] = system: PREC3; assay: MIC, broth microdilution; assay type: cell-based; details: Escherichia coli, MHB, 1 × 10^6 CFU/ml, 16–18 h, 37°C, independent triplicates
Description: as §1

[14] = system: S. aureus ATCC; assay: MIC, broth microdilution; assay type: cell-based; details: Staphylococcus aureus, MHB, 1 × 10^6 CFU/ml, 16–18 h, 37°C, independent triplicates
Description: as §1

[15] = system: Salmonella SL1344; assay: MIC, broth microdilution; assay type: cell-based; details: MHB, 1 × 10^6 CFU/ml, 16–18 h, 37°C, independent triplicates
Description: as §1

[16] = system: CRCB1; assay: MIC, broth microdilution; assay type: cell-based; details: Citrobacter, MHB, 1 × 10^6 CFU/ml, 16–18 h, 37°C, independent triplicates
Description: as §1

[17] = system: CRCB2; assay: MIC, broth microdilution; assay type: cell-based; details: Citrobacter, MHB, 1 × 10^6 CFU/ml, 16–18 h, 37°C, independent triplicates
Description: as §1

[18] = system: CRCB3; assay: MIC, broth microdilution; assay type: cell-based; details: Citrobacter, MHB, 1 × 10^6 CFU/ml, 16–18 h, 37°C, independent triplicates
Description: as §1

[19] = system: CREC5; assay: MIC, broth microdilution; assay type: cell-based; details: Escherichia coli, MHB, 1 × 10^6 CFU/ml, 16–18 h, 37°C, independent triplicates
Description: as §1

[20] = system: CREC7; assay: MIC, broth microdilution; assay type: cell-based; details: Escherichia coli, MHB, 1 × 10^6 CFU/ml, 16–18 h, 37°C, independent triplicates
Description: as §1

[21] = system: CRKP1; assay: MIC, broth microdilution; assay type: cell-based; details: Klebsiella pneumoniae, MHB, 1 × 10^6 CFU/ml, 16–18 h, 37°C, independent triplicates
Description: as §1

[22] = system: CRKP2; assay: MIC, broth microdilution; assay type: cell-based; details: Klebsiella pneumoniae, MHB, 1 × 10^6 CFU/ml, 16–18 h, 37°C, independent triplicates
Description: as §1

[23] = system: CRKP3; assay: MIC, broth microdilution; assay type: cell-based; details: Klebsiella pneumoniae, MHB, 1 × 10^6 CFU/ml, 16–18 h, 37°C, independent triplicates
Description: as §1

[24] = system: CRKP4; assay: MIC, broth microdilution; assay type: cell-based; details: Klebsiella pneumoniae, MHB, 1 × 10^6 CFU/ml, 16–18 h, 37°C, independent triplicates
Description: as §1

[25] = system: CRKP5; assay: MIC, broth microdilution; assay type: cell-based; details: Klebsiella pneumoniae, MHB, 1 × 10^6 CFU/ml, 16–18 h, 37°C, independent triplicates
Description: as §1

[26] = system: CRKP6; assay: MIC, broth microdilution; assay type: cell-based; details: Klebsiella pneumoniae, MHB, 1 × 10^6 CFU/ml, 16–18 h, 37°C, independent triplicates
Description: as §1

[27] = system: P. aeruginosa UCBPP-PA01; assay: MIC, broth microdilution; assay type: cell-based; details: Pseudomonas aeruginosa, UCBPPPA01, MHB, 1 × 10^6 CFU/ml, 16–18 h, 37°C, independent triplicates
Description: as §1

[28] = system: PRCB1; assay: MIC, broth microdilution; assay type: cell-based; details: Citrobacter, MHB, 1 × 10^6 CFU/ml, 16–18 h, 37°C, independent triplicates
Description: as §1

[29] = system: CRKP2; assay: Mouse peritonitis model induced by CRKP2; assay type: in vivo, BALB/c mice; details: 1.0 × 10^8 CFU CRKP2 i.p.; treatment at 1 and 6 h; BMAP‐27B 3, 6 or 9 mg/kg, MEM 10 mg/kg, combination 3 + 10 mg/kg; tissues 24 h after infection
Description: Male BALB/c mice were used in this study, with six mice per group. The mice were infected via an intraperitoneal injection with a suspension of 1.0 × 10^8 CFU of CRKP2. At 1 and 6 h postinfection, the mice were treated with PBS, BMAP‐27B at doses of 3, 6, or 9 mg/kg, MEM at 10 mg/kg alone, or a combination of BMAP‐27B (3 mg/kg) and MEM (10 mg/kg). After 24 h of bacterial challenge, the surviving mice were euthanized by cervical dislocation. The kidneys, livers, spleens, and lungs of each mouse were harvested within […] postinfection. A portion of these organs was taken for histologic analysis using H&E staining, while the remaining tissue samples were weighed, homogenized in sterile normal saline, and serially diluted in saline. A volume of 100 µl of the homogenate dilutions was uniformly plated onto agar plates containing MEM (8 μg/ml). After overnight incubation at 37°C, colonies were counted and the results were expressed as CFU/g.

SMILES	MIC [1]	MIC [2]	MIC [3]	MIC [4]	MIC [5]	MIC [6]	MIC [7]	MIC [8]	MIC [9]	MIC [10]	MIC [11]	MIC [12]	MIC [13]	MIC [14]	MIC [15]	MIC [16]	MIC [17]	MIC [18]	MIC [19]	MIC [20]	further results
CNC(C)C1CCC(N)C(OC2C(N)CC(N)C(OC3OCC(C)(O)C(NC)C3O)C2O)O1 (stereo not shown) [GEN, gentamicin]	> 32 µg/mL	> 32 µg/mL	> 32 µg/mL	> 32 µg/mL	> 32 µg/mL	> 32 µg/mL	> 32 µg/mL	32 µg/mL (≈ 67 µM)	8 µg/mL (≈ 16.8 µM)	2 µg/mL (≈ 4.19 µM)	> 32 µg/mL	> 32 µg/mL	2 µg/mL (≈ 4.19 µM)	2 µg/mL (≈ 4.19 µM)	4 µg/mL (≈ 8.38 µM)						
C[C@@H](O)[C@H]1C(=O)N2C(C(=O)O)=C(SCCN=CN)C[C@H]12 [IMP, imipenem]	> 32 µg/mL	> 32 µg/mL	> 32 µg/mL	> 32 µg/mL	32 µg/mL (≈ 107 µM)	> 32 µg/mL	32 µg/mL (≈ 107 µM)	> 32 µg/mL	> 32 µg/mL	4 µg/mL (≈ 13.4 µM)	< 1 µg/mL	< 1 µg/mL	< 1 µg/mL	< 1 µg/mL	< 1 µg/mL	> 32 µg/mL	32 µg/mL (≈ 107 µM)	8 µg/mL (≈ 26.7 µM)	32 µg/mL (≈ 107 µM)	32 µg/mL (≈ 107 µM)	MIC [21]: 32 µg/mL (≈ 107 µM); MIC [22]: 32 µg/mL (≈ 107 µM); MIC [23]: > 32 µg/mL; MIC [24]: 16 µg/mL (≈ 53.4 µM); MIC [25]: 4 µg/mL (≈ 13.4 µM); MIC [26]: 4 µg/mL (≈ 13.4 µM); MIC [27]: < 1 µg/mL; MIC [28]: < 1 µg/mL
C[C@@H](O)[C@H]1C(=O)N2C(C(=O)O)=C(S[C@@H]3CN[C@H](C(=O)N(C)C)C3)[C@H](C)[C@H]12 [MEM, meropenem]	> 32 µg/mL	> 32 µg/mL	> 32 µg/mL	16 µg/mL (≈ 41.7 µM)	32 µg/mL (≈ 83.4 µM)	> 32 µg/mL	32 µg/mL (≈ 83.4 µM)	16 µg/mL (≈ 41.7 µM)	8 µg/mL (≈ 20.9 µM)	2 µg/mL (≈ 5.22 µM)	< 1 µg/mL	< 1 µg/mL	< 1 µg/mL	< 1 µg/mL	< 1 µg/mL	32 µg/mL (≈ 83.4 µM)	32 µg/mL (≈ 83.4 µM)	32 µg/mL (≈ 83.4 µM)	32 µg/mL (≈ 83.4 µM)	32 µg/mL (≈ 83.4 µM)	MIC [21]: > 32 µg/mL; MIC [22]: > 32 µg/mL; MIC [23]: > 32 µg/mL; MIC [24]: 32 µg/mL (≈ 83.4 µM); MIC [25]: 32 µg/mL (≈ 83.4 µM); MIC [26]: > 32 µg/mL; MIC [27]: < 1 µg/mL; MIC [28]: < 1 µg/mL; bacterial titers in the liver, spleen, lung, and kidneys compared to the infection group [29]: only slightly lower
CN(C)[C@@H]1C(O)=C(C(N)=O)C(=O)[C@@]2(O)C(O)=C3C(=O)c4c(O)cccc4[C@@](C)(O)[C@H]3C[C@@H]12 [TET, tetracycline]	> 32 µg/mL	> 32 µg/mL	> 32 µg/mL	> 32 µg/mL	> 32 µg/mL	> 32 µg/mL	> 32 µg/mL	> 32 µg/mL	> 32 µg/mL	16 µg/mL (≈ 36 µM)	> 32 µg/mL	> 32 µg/mL	> 32 µg/mL	< 1 µg/mL	4 µg/mL (≈ 9 µM)	> 32 µg/mL	> 32 µg/mL	> 32 µg/mL	> 32 µg/mL	> 32 µg/mL	MIC [21]: > 32 µg/mL; MIC [22]: > 32 µg/mL; MIC [23]: > 32 µg/mL; MIC [24]: > 32 µg/mL; MIC [25]: > 32 µg/mL; MIC [26]: 32 µg/mL (≈ 72 µM); MIC [27]: 16 µg/mL (≈ 36 µM); MIC [28]: > 32 µg/mL
